From US11925617B2 (priority 2005, dated 2024) come the findings set out here.

Experiment [1] relates to HL60 bcl-2 cells. The experiment in a line: cells. The class given is cell-based.
The next experiment has as its system bcl-2 protein. Type of experiment: cell-based.
Experiment [2] deals with HL60 bcl-2 cells. Type of experiment: cell-based.
The next experiment has as its system HT29 cells. Type of experiment: cell-based, Human.
The next experiment concerns SCC VII cells. Type of experiment: cell-based, murine.
For experiment [3], the system named is HL60 neo cells. The class given is cell-based.
In experiment [4] the test system is HL60 neo cells. In words: cells. The following applies: Homo sapiens, HL-60, 240 h, read-out: inhibition of cell growth. The class given is cell-based.

For orientation: inhibition means the percentage by which the read-out fell short of the control. In the case of `O=C(CBr)N1CC([N+](=O)[O-])([N+](=O)[O-])C1` [ABDNAZ], in the experiment with HL60 bcl-2 cells [1], the “sensitivity of HL60 bcl-2 cells compared with neo cells” value is recorded as “as sensitive as neo cells”. The inhibition at 5 µM in the experiment with HL60 bcl-2 cells [1] (Homo sapiens, HL-60, 240 h, read-out: inhibition of cell growth) was > 95%. For the same compound, in the experiment on bcl-2 protein, the bcl-2 protein expression result is “inhibited bcl-2 protein expression in both neo and bcl-2 cells in a dose-dependent manner”. Moreover, in the experiment on HL60 bcl-2 cells [2], the apoptosis is given as 78% and the “apoptotic cell death, peak” value is listed as ~40%. In the experiment on HT29 cells, the “intracellular ROS generation, combined treatment of ABDNAZ and radiation” value is “synergistically induced intracellular ROS generation”; the “production of ROS” value was “dose, time and cell line dependent”; the “time of peak ROS production” value stood at 24 h. In the experiment with SCC VII cells, the “intracellular ROS generation, combined treatment of ABDNAZ and radiation” value was “synergistically induced intracellular ROS generation”; the “levels of ROS compared with HT29 cells” value was “significantly higher than that induced in HT29 cells”; the “production of ROS” value was “dose, time and cell line dependent”; the “time of peak ROS production” value was 2 h. In the experiment with HL60 neo cells [3], the apoptosis stood at 95% and the “apoptotic cell death, peak” value is ~40%. Also, the inhibition at 5 µM with HL60 neo cells [4] was > 95%.
